# From patent US20140206708A1, “COMPOSITION FOR OPHTHALMIC ADMINISTRATION” (Rigel Pharmaceuticals, Inc., priority 2013, published 2014)
# How the values were obtained:
# Aqueous solubility = format: physicochemical
# [1] = solution pH 8, stored at room temperature for approximately 16 months
Structure (SMILES),aqueous solubility compared with free acid form and compound II (Aqueous solubility),solubility in water (Aqueous solubility; in water),compound I choline salt converted to compound II [1],"solubility (Aqueous solubility; water (aqueous), room temperature)"
"C#CCOc1ccc(Nc2nc(Nc3ccc(C)c(S(=O)(=O)NC(=O)CC)c3)ncc2F)cc1.C[N+](C)(C)CCO [VII, 5-Fluoro-N2-[4-methyl-3-(N-propionylaminosulfonyl)phenyl]-N4-[4-(2-propynyloxy)phenyl]-2,4-pyrimidinediamine Choline Salt]",significantly higher aqueous solubility than both its free acid form and compound II,about 9.1 mg/mL,about 5%,
"C#CCOc1ccc(Nc2nc(Nc3ccc(C)c(S(N)(=O)=O)c3)ncc2F)cc1 [Compound II, N2-(3-aminosulfonyl-4-methylphenyl)-5-fluoro-N4-[4-(prop-2-ynyloxy)phenyl]-2,4-pyrimidinediamine]",,,,~0.9 µg/mL
